Measurements taken from patent US6391568B1, “Method for determining platelet reactivity in a whole blood sample” (Lionheart Technologies, Inc., priority 1998, dated 2002).

Test system: platelets (surface glycoprotein IIb-IIIa)
Experiment: Inhibition of fibrinogen*FITC binding to ADP-activated platelets in whole blood spiked with ReoPro (microtitration well capture)
Assay type: cell-based
Conditions: whole blood (CTI 32 μg/ml) pretreated with ReoPro 3 μg/ml; ADP 0, 0.4, 0.8 μM; FIG. 3
Text: The concentration of ReoPro used is that known to inhibit the aggregation of platelets as determined with the use of aggregometry.

ReoPro: antiplatelet drug that inhibits binding of fibrinogen to the activated conformer of surface glycoprotein IIb-IIIa
binding of fibrinogen*FITC to platelets (ratio of fibrinogen*FITC signal to CD42*PerCP signal): inhibits
